We go through 18 molecules from ChEMBL document CHEMBL5550096, “Casitas b cell lymphoma‑B (Cbl-b): A new therapeutic avenue for small-molecule immunotherapy” (Bioorg Med Chem, 2024).

Where a SMILES comes first, the peptide text is derived from it. [ ]: non-standard residue; d: D form. The star is where a group is joined. pY = N[C@@H](Cc1ccc(OP(=O)(O)O)cc1)C(=O)O; Myristoyl = CCCCCCCCCCCCCC(=O)* Some results are limits rather than exact numbers.

Usually IC50 stands for the concentration that gives 50% inhibition. One may read the Kd as the constant that tells how readily two partners part at equilibrium. The low end stands for higher affinity, the high end for lower affinity. What is called CLint scaled is the rate of metabolic loss divided by the concentration. One may read the half-life as how long it takes for the measured level to halve. A higher half-life goes with slow decline.

In data set [1] the target is T1, E3 ubiquitin-protein ligase CBL-B (Homo sapiens, UniProt Q13191). Put plainly: Inhibition of N-terminal His-tagged human Cbl-b (40 to 426 residues) expressed in Escherichia coli by measured for 90 mins by HTRF method. A general note: Time-resolved FRET reads energy transfer from a long-lived donor to a nearby acceptor.
T1 sequence (Q13191 whole entry, the tested form may be a part): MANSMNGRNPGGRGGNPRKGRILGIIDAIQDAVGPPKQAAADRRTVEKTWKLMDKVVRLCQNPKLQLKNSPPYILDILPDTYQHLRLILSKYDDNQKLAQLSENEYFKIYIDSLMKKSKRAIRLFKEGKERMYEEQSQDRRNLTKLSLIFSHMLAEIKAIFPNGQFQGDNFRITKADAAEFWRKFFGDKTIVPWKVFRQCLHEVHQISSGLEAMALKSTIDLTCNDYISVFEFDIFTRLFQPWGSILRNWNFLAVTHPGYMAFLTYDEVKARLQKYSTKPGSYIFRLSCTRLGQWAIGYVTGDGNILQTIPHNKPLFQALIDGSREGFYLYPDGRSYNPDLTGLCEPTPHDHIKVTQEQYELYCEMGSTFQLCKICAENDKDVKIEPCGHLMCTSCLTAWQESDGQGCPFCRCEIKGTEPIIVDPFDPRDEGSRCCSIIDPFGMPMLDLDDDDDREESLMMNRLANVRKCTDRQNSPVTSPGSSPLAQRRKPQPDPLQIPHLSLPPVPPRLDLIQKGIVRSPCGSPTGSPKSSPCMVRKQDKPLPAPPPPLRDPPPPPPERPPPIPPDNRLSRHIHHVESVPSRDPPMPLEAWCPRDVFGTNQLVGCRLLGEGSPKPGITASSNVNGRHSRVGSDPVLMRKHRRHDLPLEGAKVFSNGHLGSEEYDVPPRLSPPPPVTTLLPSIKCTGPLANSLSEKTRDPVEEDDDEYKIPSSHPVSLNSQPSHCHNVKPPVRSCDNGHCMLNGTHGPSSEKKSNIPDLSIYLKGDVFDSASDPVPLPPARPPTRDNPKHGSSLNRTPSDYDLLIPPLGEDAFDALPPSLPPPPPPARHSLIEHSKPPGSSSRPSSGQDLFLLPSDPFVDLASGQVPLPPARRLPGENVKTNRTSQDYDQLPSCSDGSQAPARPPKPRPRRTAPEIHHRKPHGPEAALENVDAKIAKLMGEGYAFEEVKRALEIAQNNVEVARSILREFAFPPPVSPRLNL
For data set [2], the target named is T1, E3 ubiquitin-protein ligase CBL-B. Put plainly: Inhibition of Cbl-b (unknown origin).
For data set [3] the target is unchanged. Put plainly: Inhibition of Cbl-b (unknown origin) by TR-FRET assay.
The target is the same in data set [4].
Description: Binding affinity to CBl-b (unknown origin) assessed as dissociation constant by Surface plasmon resonance
Data set [5] has the same target. Put plainly: Inhibition of Cbl-b (unknown origin) ubiquitination by TR-FRET assay.
Data set [6] shares this target. Put plainly: Inhibition of Cbl-b (unknown origin) by HTRF assay.
Data set [7] has the same target. Put plainly: Inhibition of biotinylated recombinant Cbl-b (36 to 427 residues)(unknown origin) expressed in Escherichia coli BL21(DE3) measured for 1 hr by TR-FRET assay.
Data set [8] shares this target. Put plainly: Inhibition of recombinant Cbl-b (unknown origin) ubiquitination incubated for 1 hr by TR-FRET assay.
Data set [9] is described as follows: Intrinsic clearance in mouse liver microsomes by HPLC-MS/MS analysis. In general terms: Liver microsomes are vesicles of endoplasmic reticulum, rich in cytochrome P450 enzymes.
Data set [10] in a line: Half life in rat plasma. Type of data set: ADME, cell-free.
Data set [11] addresses T1, E3 ubiquitin-protein ligase CBL-B. Put plainly: Inhibition of Cbl-b (unknown origin) by SPR assay. Background: Surface plasmon resonance follows binding to a sensor surface in real time, without labels.

As for `Cn1cnnc1[C@]1(c2cccc(NC(=O)c3cc(CN4CCC[C@H](C(F)F)C4)cn4ccnc34)c2)C[C@H](CC#N)C1`, the IC50 in data set [1] was 1 nM; in [2], 5 nM.
Consider `CO[C@@]1(C(=O)N/C=C/c2ccc(O)cc2)O[C@](O)(C(=O)N/C=C/c2ccc(O)cc2)[C@@H](c2ccc(O)c(O)c2)[C@@H]1c1ccc(O)c(O)c1`, for which, in [2], half-maximal inhibition (IC50) required 11000 nM.
For the molecule `Cc1cc(CNC2(C)CCC2)cc2c(=O)c(-c3cccc([C@]4(c5nncn5C)C[C@@H](C)C4)c3)coc12`, the results for the IC50 in data set [1] and in data set [2] were 13 nM and 10 nM, respectively.
Turning to `Cc1cc(C(=O)Nc2cccc(C3(Cc4nncn4C)COC3)c2)nc(C2CC2)n1`, the values for the half-inhibitory concentration (IC50) in data set [3] and in [5] were 20 nM and 21 nM, respectively. In addition, in data set [4], the Kd was 20 nM.
Take `Cn1cnnc1[C@]1(c2cccc(-c3cnc4c(C(F)(F)F)cc(CN5CC6CC(C)(C6)C5)cn4c3=O)c2)C[C@H](C)C1`: the IC50 was 25 nM in data set [1] and 20 nM in data set [2].
Regarding `O=C(N/C=C/c1ccc(O)cc1)c1c(-c2ccc(O)c(O)c2)c(-c2ccc(O)c(O)c2)c(C(=O)N/C=C/c2ccc(O)cc2)n1CCc1ccc(O)cc1`, the IC50 in [2] came to 6500 nM.
`CC(C)[C@H]1CN(C)CCN1Cc1cc(C(=O)Nc2cccc(C3([C@@H](F)c4nncn4C)CC(F)(F)C3)c2)nc(C2CC2)c1`: the IC50 in [5] and in [6] was 7 nM throughout.
In the case of `Cn1cnnc1[C@]1(c2cccc(-n3cc4c(C(F)(F)F)cc(CN5CCC6(CC6)C5)cn4c3=O)c2)C[C@H](C)C1`, the IC50 in data set [7], in [8] and in data set [2] was less than 100 nM in each case.
For `CCCCCCCCCCCCCC(=O)N[C@@H](CC(=O)O)C(=O)NCC(=O)N[C@@H](Cc1ccc(OP(=O)(O)O)cc1)C(=O)N[C@@H](CCSC)C(=O)N1CCC[C@H]1C(=O)O` (Myristoyl-DG[pY]MP-OH), in [8], the IC50 is 30000 nM.
`C[C@H](Sc1nncn1C)c1cccc(NC(=O)c2ccnc(C3CC3)n2)c1` registered a CLint scaled in data set [9] of 500 mL/min/kg. Besides, the half-life in [10] is 2.33 h.
`C[C@H]1CCCN(Cc2cc3c(c(C(F)(F)F)c2)CN(c2cccc([C@]4(c5nncn5C)C[C@@H](C)C4)c2)C3=O)C1` gave a Kd in data set [4] of 8 nM. The IC50 in [8] and in data set [5] was less than 5 nM in each case.
With `C[C@H](Cc1nncn1C)c1cccc(-c2n[nH]c3c(CN4CC[C@H](F)C4)cc(C(F)(F)F)nc23)c1`, the IC50 in data set [7] and in [2] was less than 100 nM throughout.
`Cn1cnnc1-c1cc(C#N)ccc1-c1cc(C2CC2)nc(N2Cc3c(cc(CNCC4(F)CCC4)cc3C(F)(F)F)C2=O)c1`: the IC50 in data set [11] is 200 nM; in data set [6] it was less than 200 nM.
With `COCC1(NCc2cc3c(c(C(F)(F)F)c2)CN(c2cccc([C@]4(c5nncn5C)C[C@H](OC)C4)c2)C3=O)CC1`, in data set [4], the Kd amounted to 4 nM. In [11], this molecule yielded an IC50 of 4 nM.
`Cn1cnnc1[C@]1(c2cccc(N3C(=O)c4cc(CNC5(C)CCC5)cc5cccc3c45)c2)C[C@H](C)C1`: the 50% inhibitory concentration (IC50) in data set [11] and in data set [6] was 20 nM in each case.
Take `Cn1cnnc1C(F)(F)[C@](C)(F)c1cccc(NC(=O)N2CC3(CNC3)Oc3cccnc32)c1`: the IC50 in data set [7] and in [2] was less than 100 nM each time.
Take `C[C@H]1CCCN(Cc2cc(C(F)(F)F)c3[nH]c(-c4cccc([C@]5(c6nncn6C)C[C@@H](C)C5)c4)nc3c2)C1`: the IC50 in data set [7] and in [2] was less than 200 nM throughout.
On to `CC(c1cc(C(=O)Nc2cccc([C@]3(c4nncn4C)C[C@@H](CC#N)C3)c2)nc2cc[nH]c12)N1CCC[C@H](C)C1` (stereo partly specified), for which the IC50 in data set [1] came to 4 nM; in data set [2] it was 11000 nM.
